Results from ChEMBL document CHEMBL4229547, “Design, synthesis and biological mechanisms research on 1,2,3-triazole derivatives of Jiyuan Oridonin A” (Bioorg Med Chem, 2018).
Active and inactive are the calls of the source. The rule behind the calls is not given here.

Key:
[1] = test system: MGC-803; assay: Induction of apoptosis in human MGC803 cells assessed as early apoptotic cells at 1.5 ug/ml by annexin V-FITC/propidium iodide staining-based flow cytometric method (reference value: 1.3%); assay type: functional
[2] = test system: HGC-27; assay: Antiproliferative activity against human HGC27 cells after 48 hrs by MTT assay; assay type: functional, cell-based; details: HGC-27, 48 h
[3] = test system: MGC-803; assay: Induction of reactive oxygen species formation in human MGC803 cells at 3 ug/ml after 3 hrs by DCFH-DA staining-based flow cytometry (reference value: 7.1%); assay type: functional
[4] = test system: MGC-803; assay: Cell cycle arrest in human MGC803 cells assessed as accumulation at G2/M phase after 48 hrs by propidium iodide staining-based flow cytometric method; assay type: functional
[5] = test system: MGC-803; assay: Cell cycle arrest in human MGC803 cells assessed as accumulation at S phase at 1.5 ug/ml after 48 hrs in presence of N-acetyl cysteine by propidium iodide staining-based flow cytometric method (reference value: 32.5 +/- 2.25%); assay type: functional
[6] = test system: MGC-803; assay: Cell cycle arrest in human MGC803 cells assessed as accumulation at S phase at 1.5 ug/ml after 48 hrs by propidium iodide staining-based flow cytometric method (reference value: 32.5 +/- 2.25%); assay type: functional
[7] = test system: MGC-803; assay: Cell cycle arrest in human MGC803 cells assessed as accumulation at G2/M phase at 3 ug/ml after 48 hrs in presence of N-acetyl cysteine by propidium iodide staining-based flow cytometric method (reference value: 17.2 +/- 1.35%); assay type: functional
[8] = test system: MGC-803; assay: Induction of apoptosis in human MGC803 cells assessed as late apoptotic cells at 1.5 ug/ml by annexin V-FITC/propidium iodide staining-based flow cytometric method (reference value: 0.1%); assay type: functional
[9] = test system: MGC-803; assay: Disruption of mitochondrial membrane potential in human MGC803 cells at 1.5 to 3 ug/ml after 24 hrs by JC1 staining-based fluorescence microscopic method; assay type: functional, cell-based
[10] = test system: MGC-803; assay: Antiproliferative activity against human MGC803 cells at 8 to 16 ug/ml after 48 hrs in presence of N-acetyl cysteine by MTT assay; assay type: functional, cell-based
[11] = test system: PC-3; assay: Antiproliferative activity against human PC3 cells after 48 hrs by MTT assay; assay type: functional, cell-based; details: PC-3, 48 h
[12] = test system: MGC-803; assay: Cell cycle arrest in human MGC803 cells assessed as accumulation at G0/G1 phase at 3 ug/ml after 48 hrs in presence of N-acetyl cysteine by propidium iodide staining-based flow cytometric method (reference value: 52.5 +/- 3.71%); assay type: functional
[13] = test system: MGC-803; assay: Induction of apoptosis in human MGC803 cells assessed as decrease in cell number after 24 hrs by inverted microscopic method; assay type: functional, cell-based
[14] = test system: EC9706; assay: Antiproliferative activity against human EC9706 cells after 48 hrs by MTT assay; assay type: functional, cell-based; details: EC9706, 48 h
[15] = test system: GES1; assay: Antiproliferative activity against human GES-1 cells after 48 hrs by MTT assay; assay type: cell-based; details: GES1, 48 h
[16] = test system: MGC-803; assay: Induction of apoptosis in human MGC803 cells assessed as necrotic cells at 3 ug/ml in presence of N-acetyl cysteine by annexin V-FITC/propidium iodide staining-based flow cytometric method (reference value: 1%); assay type: functional
[17] = test system: MGC-803; assay: Induction of apoptosis in human MGC803 cells assessed as late apoptotic cells at 1.5 ug/ml in presence of N-acetyl cysteine by annexin V-FITC/propidium iodide staining-based flow cytometric method (reference value: 0.1%); assay type: functional
[18] = test system: MGC-803; assay: Antiproliferative activity against human MGC803 cells at 16 to 32 ug/ml after 48 hrs by MTT assay relative to control; assay type: functional
[19] = test system: MGC-803; assay: Disruption of mitochondrial membrane potential in human MGC803 cells at 1.5 to 3 ug/ml after 24 hrs in presence of N-acetyl cysteine by JC1 staining-based fluorescence microscopic method; assay type: functional, cell-based
[20] = test system: MGC-803; assay: Induction of apoptosis in human MGC803 cells assessed as late apoptotic cells at 3 ug/ml by annexin V-FITC/propidium iodide staining-based flow cytometric method (reference value: 0.1%); assay type: functional
[21] = test system: MGC-803; assay: Induction of apoptosis in human MGC803 cells assessed as necrotic cells at 1.5 ug/ml in presence of N-acetyl cysteine by annexin V-FITC/propidium iodide staining-based flow cytometric method (reference value: 1%); assay type: functional
[22] = test system: MGC-803; assay: Induction of apoptosis in human MGC803 cells assessed as viable cells at 1.5 ug/ml in presence of N-acetyl cysteine by annexin V-FITC/propidium iodide staining-based flow cytometric method (reference value: 97.6%); assay type: functional; details: read-out: Activity
[23] = test system: MGC-803; assay: Induction of apoptosis in human MGC803 cells assessed as necrotic cells at 1.5 ug/ml by annexin V-FITC/propidium iodide staining-based flow cytometric method (reference value: 1%); assay type: functional
[24] = test system: MGC-803; assay: Induction of apoptosis in human MGC803 cells assessed as early apoptotic cells at 3 ug/ml by annexin V-FITC/propidium iodide staining-based flow cytometric method (reference value: 1.3%); assay type: functional
[25] = test system: MCF7; assay: Antiproliferative activity against human MCF7 cells after 48 hrs by MTT assay; assay type: functional, cell-based; details: MCF7, 48 h
[26] = test system: MGC-803; assay: Induction of apoptosis in human MGC803 cells assessed as downregulation of survivin levels at 1.5 to 6 ug/ml after 48 hrs by Western blot method; assay type: functional, cell-based
[27] = test system: MGC-803; assay: Cell cycle arrest in human MGC803 cells assessed as accumulation at G0/G1 phase at 1.5 ug/ml after 48 hrs in presence of N-acetyl cysteine by propidium iodide staining-based flow cytometric method (reference value: 52.5 +/- 3.71%); assay type: functional
[28] = test system: MGC-803; assay: Cell cycle arrest in human MGC803 cells assessed as accumulation at G2/M phase at 3 ug/ml after 48 hrs by propidium iodide staining-based flow cytometric method (reference value: 17.2 +/- 1.35%); assay type: functional
[29] = test system: MGC-803; assay: Induction of apoptosis in human MGC803 cells assessed as viable cells at 3 ug/ml by annexin V-FITC/propidium iodide staining-based flow cytometric method (reference value: 97.6%); assay type: functional; details: read-out: Activity
[30] = test system: MGC-803; assay: Induction of apoptosis in human MGC803 cells assessed as upregulation of p21 levels at 1.5 to 6 ug/ml after 48 hrs by Western blot method; assay type: functional, cell-based
[31] = test system: MGC-803; assay: Induction of apoptosis in human MGC803 cells assessed as early apoptotic cells at 3 ug/ml in presence of N-acetyl cysteine by annexin V-FITC/propidium iodide staining-based flow cytometric method (reference value: 1.3%); assay type: functional
[32] = test system: MGC-803; assay: Induction of apoptosis in human MGC803 cells assessed as viable cells at 3 ug/ml in presence of N-acetyl cysteine by annexin V-FITC/propidium iodide staining-based flow cytometric method (reference value: 97.6%); assay type: functional; details: read-out: Activity
[33] = test system: MGC-803; assay: Induction of apoptosis in human MGC803 cells assessed as decrease in ratio of Bcl-2/Bax at 1.5 to 6 ug/ml after 48 hrs by Western blot method; assay type: functional, cell-based
[34] = test system: MGC-803; assay: Cell cycle arrest in human MGC803 cells assessed as accumulation at S phase at 3 ug/ml after 48 hrs in presence of N-acetyl cysteine by propidium iodide staining-based flow cytometric method (reference value: 32.5 +/- 2.25%); assay type: functional
[35] = test system: MGC-803; assay: Induction of apoptosis in human MGC803 cells assessed as increase in apoptotic bodies formation at 1.5 to 6 ug/ml after 24 hrs by Hoechst 33258 staining-based fluorescence microscopic method; assay type: functional, cell-based

IC50 [11]: 4.02 µM
IC50 [25]: 4.76 µM
SMILES: C=C1C(=O)[C@]23[C@H](O)[C@H]1C[C@H](O)[C@H]2[C@]12CCCC(C)(C)[C@H]1C[C@H]3O[C@@H]2OCCc1cn(Cc2ccc(Cl)cc2)nn1
Activity [1]: 7.8%
IC50 [2]: 2.97 µM
Activity [3]: 13.6%
Activity [4]: Dose-dependent effect
Activity [5]: 29.1%
Activity [6]: 29.2%
Activity [7]: 14.8%
Activity [8]: 0.3%
Activity [9]: Active
Activity [10]: inactive
Activity [12]: 50.4%
Activity [13]: Dose-dependent effect
IC50 [14]: 5.04 µM
IC50 [15]: 28.7 µM
Activity [16]: 0.6%
Activity [17]: 0.1%
inhibition (INH) [18]: 90%
Activity [19]: inactive
Activity [20]: 1.1%
Activity [21]: 0.6%
viability at 1.5 µg/mL [22]: 95%
Activity [23]: 0.5%
Activity [24]: 60.3%
Activity [26]: Active
Activity [27]: 55.4%
Activity [28]: 40.3%
viability at 3 µg/mL [29]: 37.4%
Activity [30]: Active
Activity [31]: 4.6%
viability at 3 µg/mL [32]: 94%
Activity [33]: Active
Activity [34]: 33.2%
Activity [35]: Active
